Laboratory results reported in BindingDB's records for patent US20250352549 (Avelos Therapeutics, 2025).

Biological target: T1, Serine/threonine-protein kinase greatwall (Human, UniProt Q96GX5)
T1 sequence (Q96GX5 whole entry): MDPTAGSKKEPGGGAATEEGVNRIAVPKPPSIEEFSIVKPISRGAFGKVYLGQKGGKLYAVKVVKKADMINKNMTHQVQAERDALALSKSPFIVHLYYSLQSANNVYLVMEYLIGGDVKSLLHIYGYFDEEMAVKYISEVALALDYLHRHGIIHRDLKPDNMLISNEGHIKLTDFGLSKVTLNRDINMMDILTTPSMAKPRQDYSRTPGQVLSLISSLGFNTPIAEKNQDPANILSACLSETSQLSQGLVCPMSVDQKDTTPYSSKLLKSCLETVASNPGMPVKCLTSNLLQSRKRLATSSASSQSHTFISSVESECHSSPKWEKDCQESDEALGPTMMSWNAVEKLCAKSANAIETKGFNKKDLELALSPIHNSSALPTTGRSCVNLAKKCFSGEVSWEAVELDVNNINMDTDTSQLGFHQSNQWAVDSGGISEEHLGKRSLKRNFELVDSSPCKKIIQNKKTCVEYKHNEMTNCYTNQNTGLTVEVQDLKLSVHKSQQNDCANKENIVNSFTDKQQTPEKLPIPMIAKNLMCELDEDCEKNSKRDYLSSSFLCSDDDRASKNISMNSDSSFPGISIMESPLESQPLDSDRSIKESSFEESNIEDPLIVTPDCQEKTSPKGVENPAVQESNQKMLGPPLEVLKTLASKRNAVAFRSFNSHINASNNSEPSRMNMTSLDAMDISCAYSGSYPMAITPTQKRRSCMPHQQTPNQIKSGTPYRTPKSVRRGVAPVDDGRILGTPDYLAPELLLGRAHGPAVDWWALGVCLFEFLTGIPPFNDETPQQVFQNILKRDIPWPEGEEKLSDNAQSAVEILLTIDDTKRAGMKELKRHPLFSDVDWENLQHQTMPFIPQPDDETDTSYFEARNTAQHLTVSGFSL
Experiment: MASTL Activity Assay
Description: Wild-type human active MASTL (154 pM) was incubated in assay buffer (50 mM HEPES, 100 mM NaCl, 0.1 mM EGTA, 10 mM MgCl2, 0.01% Tween-20, 0.5 mM TCEP, pH 7.5) with biotin tagged 40-mer ENSA peptide (10 nM), test compound and ATP (18 μM) for 60 minutes at room temperature. Test compounds were assayed using a 12-point dose range consisting of a 0, DMSO control and 10 sequential doses consisting from 0.0005, 0.002, 0.005, 0.014, 0.04, 0.12, 0.37, 1.11, 3.33 and 10 μM. The DMSO concentration was the same (1%) in all samples. An equal volume of detection buffer (assay buffer+267.5 pM Ab-K, 1.25 nM SA-D2, 20 mM EDTA and 400 mM KF) was added to stop the reaction to make a final volume of 20 μl, RT for 60 mins. Activity was measured using a plate reader (PerkinElmer EnSight) by the FRET signal generated between SA-D2 (streptavidin-D2) and Ab-K (anti-phospho-Serine 67 ENSA antibody (rabbit polyclonal, using standard techniques by a commercial supplier) conjugated to Cryptate). HTRF reagents (CisBio) were prepared as per the manufacturer recommendations. The 40-mer biotin-tagged ENSA peptide (synthesised by Bionics) used was based around Serine 67 on ENSA ([…]).

IC50	Structure (SMILES)
< 0.5 µM	CC(C)C(Nc1nc(N)nc(-c2ccc3cn[nH]c3c2)n1)c1c[nH]c(C(F)(F)F)n1 (stereo unspecified) [US20250352549, Example 156]
< 0.5 µM	CCC(Nc1nc(N)nc(-c2ccc3cn[nH]c3c2)n1)c1c[nH]c(C(F)(F)F)n1 (stereo unspecified) [US20250352549, Example 157]
> 1 µM	Cc1ncc2ccc(-c3nc(N)nc(NC(c4nc(C(F)(F)F)no4)C(C)C)n3)cn12 (stereo unspecified) [US20250352549, Example 158]
in the range around 0.75 µM	Cc1ncc2ccc(-c3nc(N)nc(NCc4nc(C(F)(F)F)no4)n3)cn12 [US20250352549, Example 159]
in the range around 0.75 µM	Cc1ncc2ccc(-c3nc(N)nc(NC(C)(C)c4nc(C(F)(F)F)no4)n3)cn12 [US20250352549, Example 160]
in the range around 0.75 µM	Cc1ncc2ccc(-c3nc(N)nc(N(C)C(c4c[nH]c(C(F)(F)F)n4)C(C)C)n3)cn12 (stereo unspecified) [US20250352549, Example 161]
in the range around 0.75 µM	Cc1ncc2ccc(-c3nc(N)nc(N(C)Cc4cccc(F)c4Cl)n3)cn12 [US20250352549, Example 162]
< 0.5 µM	Cc1ncc2ccc(-c3nc(N)nc(N(C)Cc4cccc(Cl)c4F)n3)cn12 [US20250352549, Example 163]
< 0.5 µM	Cc1ncc2ccc(-c3nc(N)nc(N(C)Cc4c[nH]c(C(F)(F)F)n4)n3)cn12 [US20250352549, Example 164]
< 0.5 µM	Cc1ncc2ccc(-c3nc(N)nc(NC(c4cn(C)c(C(F)(F)F)n4)C(C)C)n3)cn12 (stereo unspecified) [US20250352549, Example 165]
> 1 µM	Cc1ncc2ccc(-c3nc(N)nc(NC(c4nnc(C(F)(F)F)o4)C(C)C)n3)cn12 (stereo unspecified) [US20250352549, Example 166]
< 0.5 µM	CC(C)C(Nc1nc(N)nc(-c2ccc3cn[nH]c3c2)n1)c1ccn(C(F)F)n1 (stereo unspecified) [US20250352549, Example 167]
> 1 µM	Cc1ncc2ccc(-c3nc(N)nc(NC(c4ccc(C#N)cn4)C(C)C)n3)cn12 (stereo unspecified) [US20250352549, Example 168]
in the range around 0.75 µM	Cc1ncc2ccc(-c3nc(N)nc(N(C)C(c4cn(C)c(C(F)(F)F)n4)C(C)C)n3)cn12 (stereo unspecified) [US20250352549, Example 169]
< 0.5 µM	CNc1nc(NC(c2ccn(C(F)F)n2)C(C)C)nc(-c2ccc3cn[nH]c3c2)n1 (stereo unspecified) [US20250352549, Example 171]
< 0.5 µM	CNc1nc(NC(C)(C)c2ccn(C(F)F)n2)nc(-c2ccc3cnn(C)c3c2)n1 [US20250352549, Example 172]
< 0.5 µM	Cn1ncc2ccc(-c3nc(N)nc(NC(C)(C)c4c[nH]c(C(F)(F)F)n4)n3)cc21 [US20250352549, Example 174]
< 0.5 µM	Cc1ncc2ccc(-c3nc(N)nc(NC(C)(C)c4ccn(CCN)n4)n3)cn12 [US20250352549, Example 175]
< 0.5 µM	Cc1ncc2ccc(-c3nc(N)nc(NC(c4ccc(CN)cn4)C(C)C)n3)cn12 (stereo unspecified) [US20250352549, Example 178]
< 0.5 µM	CC(C)CC(Nc1nc(N)nc(-c2ccc3cn[nH]c3c2)n1)c1c[nH]c(C(F)(F)F)n1 (stereo unspecified) [US20250352549, Example 179]
< 0.5 µM	Cc1nc(C)n2cc(-c3nc(N)nc(NC(c4c[nH]c(C(F)(F)F)n4)C(C)C)n3)ccc12 (stereo unspecified) [US20250352549, Example 181]
